This is an account of results in the NIST ThermoML archive (doi:10.1021/acs.jced.5b00122).

Numbers after ± are expanded uncertainties.

In general, mass density refers to the mass of a sample divided by its volume.

The conditions of this data set: 298.15 K; 101.33 kPa; Liquid; Vibrating tube method.

In the case of `CCCOCCO` [2-propoxyethanol], the mass density was determined as 907.878 ± 1.8 kg/m3. Regarding `CO` [methanol], the mass density is recorded as 787.52 ± 1.6 kg/m3.

For the compound `COCCO` [2-methoxyethan-1-ol], the mass density was determined as 960.892 ± 1.9 kg/m3. As for `CCO` [ethanol], the figure is 787.577 ± 1.6 kg/m3; as for `CC(C)O` [propan-2-ol], 781.214 ± 1.6 kg/m3.

As to `CCCO` [propan-1-ol], the mass density is recorded as 801.08 ± 1.6 kg/m3.
